Results: paper PMC9238271, “The quorum sensing peptide EntF* promotes colorectal cancer metastasis in mice: a new factor in the host-microbiome interaction” (BMC Biology, 2022)
Where “and” joins values, the source holds several entries; their conditions need not be identical. Equal values may be shown once.

How the values were obtained:
[1] = test system: E-cadherin expression in Caco-2 cells; experiment: Western blot of E-cadherin expression, Caco-2 cells; assay type: cell-based
Procedure: HCT-8, HT-29, and HT-116 cells were grown in DMEM medium supplied with 10% fetal bovine serum (FBS) and 1% penicillin-streptomycin. Caco-2 cells were grown in DMEM medium supplied with 10% FBS, 1% non-essential amino acid NEAA), and 1% penicillin-streptomycin. Cells were cultured at 37 °C and 5% CO2. As cells reached confluency, they were detached using 0.25% Trypsin-EDTA.
For Western blot analyses, HCT-8 (n = 15), HCT-116 (n = 12), Caco-2 (n = 6), and HT-29 (n = 12) cells were seeded in 6-well plates at a density of 1 × 10^6 cells/well. Twenty-four hours after seeding, all cell lines were treated with 1 μM EntF* or a placebo solution. HCT-8 cells were also tested for responsiveness to 1 μM EntF* synthetic alanine-derived analogs. For antagonist activity analysis, HCT-8 cells were treated with 1 μM Nef-M1 or 1 μM EntF*A1 alone or in combination with 500 nM EntF*. After 24 h, cells were detached from the surface and lysed in RIPA buffer (Thermo Scientific). Protein concentration was determined using the modified Lowry protein assay kit (Thermo Scientific), according to the manufacturer’s instructions. Protein samples were diluted to the same concentration (4 μg/μL) with water and diluted again 1:1 using 2x Laemmli buffer. After that, samples were boiled for 5 min at 95 °C to denature proteins and centrifuged for 5 min at 16,000g; supernatants were used for Western blot analyses. Equal amounts of total protein (20 μg/lane) were separated by SDS-PAGE on an Any kD^TM gel (Bio-Rad ) and then transferred to a PVDF membrane. Before incubation with antibodies, non-specific binding sites on the membranes were blocked using 5% skimmed milk solution (1 h). TBS buffer with 0.05% Tween 20 was used for all washing steps. Membranes were incubated overnight at 4 °C with an anti-E-cadherin primary antibody (1/1000 dilution). An HRP-conjugated anti-rabbit antibody (1/2000 dilution, 1 h incubation) was used for chemiluminescent detection. Membranes were incubated with the detection substrate for 5 min and signal detection was performed using the ChemiDoc EZ imager and Image Lab software (Bio-Rad). […]

[2] = test system: luciferase-transfected HCT-8/E11 cells injected into the cecal wall; experiment: Orthotopic mouse model: macroscopic number of tumor nodules on the cecum; assay type: in vivo, female athymic nude mice (Swiss nu/nu)
Procedure: (§1) Six-week-old female athymic nude mice (Swiss nu/nu) were anesthetized, and a minimally invasive midline laparotomy was performed to localize the cecum. The cecum was then gently pulled out, and luciferase-transfected HCT-8/E11 cells (1 × 10^6 cells) in 20 μL serum-free DMEM medium with Matrigel (1:1) were injected into the cecal wall. Before implantation, cells were treated with EntF* (10^2 nM), Phr0662 (10^2 nM), vehicle (PBS), or TGFα positive control (0.1 μg mL^−1) solutions for 5 days. The cecum was then carefully placed back into the abdominal cavity and the surgical incision was closed with two layers of sutures with PDS 6-0. […] Once a week, mice were examined for tumor growth and metastases using bioluminescent imaging with the IVIS Lumina II (Perkin Elmer, Belgium) after i.p. injection with 200 μL luciferin (150 mg kg^−1). After 6 weeks, mice were euthanized using cervical dislocation, and the liver, diaphragm, lungs, cecum, duodenum, and peritoneum were macroscopically examined for the presence of tumor nodules. Liver and lung tissues were then fixed in formalin for 24 h and stored in 70% ethanol for maximum 3 days before embedding in paraffin. Next, a hematoxylin and eosin (H&E) staining was performed on 8 μm sections, and 3 sections per mouse were visualized using microscopy. Slides from tumor-bearing mice were analyzed by two blinded, independent investigators using the scoring system described in Additional file 5: Table S3. In case of differences, slides were scored by a third blinded, independent investigator for consensus.
The Kolmogorov-Smirnov test was used to assess if data obtained were normally distributed. For sample size n < 10, non-parametric tests (Mann-Whitney U test) were performed directly. Slope comparison was based on linear regression analysis. Bootstrapped medians and Hedges G-values were used to calculate the effect size when sample sizes were different between the groups. Cohen’s d values were calculated as a measure of the effect size when similar standard deviations for both groups were found, and sample sizes were the same.

[3] = test system: tumor nodules in the lungs; experiment: Orthotopic mouse model: histopathological evaluation of lungs; assay type: in vivo, female athymic nude mice (Swiss nu/nu)
Procedure: as §1

**Q.** How did the “effect on E-cadherin expression in Caco-2 cells” value ([1]; 1 μM EntF* or CXCL12, 24 h, n = 6) turn out when `CC(C)C[C@@H]1NC(=O)[C@H](CO)NC(=O)[C@H](Cc2ccccc2)NC(=O)[C@H](C(C)C)NC(=O)[C@@H](NC(=O)[C@H](CCC(=O)O)NC(=O)[C@@H](NC(=O)[C@H](CC(C)C)NC(=O)[C@H](CC(N)=O)NC(=O)[C@@H](N)CO)C(C)C)CSSC[C@@H](C(=O)N[C@@H](CC(N)=O)C(=O)O)NC(=O)[C@H](CCCCN)NC(=O)[C@H](CCCCN)NC(=O)[C@H](Cc2ccccc2)NC1=O` (single isomer, unassigned) [EntF*] was run?
**A.** Its value is “statistically significant reduction”.

**Q.** And the “Relative E-cadherin in different cell lines, Average” value ([1]; CaCo-2 cells, average of n = 6)?
**A.** The value was 40.1.

**Q.** And the “effect size class by Hedges' G, number of nodules in the cecum” value ([2]; after a 6-week treatment, compared to the placebo group)?
**A.** The value was “medium”.

**Q.** What about the “Mean amount of nodules” value ([2]; macroscopic evaluation caecum, mean of the group) of the same compound?
**A.** Its value is 11.5.

**Q.** And the “number of tumor nodules in the lungs compared to the vehicle” value ([3]; 6 weeks of treatment, H&E histopathological score, n = 30 EntF*, n = 8 PBS)?
**A.** Its value is “significantly higher number of tumor nodules”.

**Q.** What about the “Histology scoring LUNGS, Scoring person 1 (ND)” value ([3]; individual samples, one line per sample) of the same compound?
**A.** Its value is 3 and 4 and 0 and 1.

**Q.** And the “Histology scoring LUNGS, conclusion per group” value ([3]; per group)?
**A.** Its value is 1.
